Assay results as given in patent US5032597A, “Method of using phenylquinolinecarboxylic acids and derivatives for lymthoid leukemia treatment in a mammal” (priority 1987, dated 1991).
Like-named read-outs stand apart in the source and are kept apart here.

Test system: L1210 leukemia
Experiment: Lymphoid Leukemia L1210, survival of tumored mice
Assay type: in vivo, CD2F1 mice
Conditions: for response vs control in vivo at 200 mg/kg: 200 mg/kg i.p.; for response vs control in vivo at 175 mg/kg: 175 mg/kg i.p.; for response vs control in vivo at 37.5 mg/kg: 37.5 mg/kg i.p.; for response vs control in vivo at 12.5 mg/kg: 12.5 mg/kg i.p.
Procedure: The efficacy of the compounds of this invention against the transplanted mouse tumors was evaluated in test systems currently in use at the National Cancer Institute for the detection and assessment of anticancer activity. […] J. Cancer, 17, 129-142, (1981); Venditti, J. M., Seminars in Oncology, 8 (4) (1981); Goldin, A. and J. M. Venditti, in Recent Results in Cancer Research, 70, S. K. Carter and Y. Sakurai, Eds., Springer-Verlag, Berlin/Heidelberg, 1980].
The animals used in this test were CD2 F1 mice, all males weighing a minimum of 18 g and all within a 4 g weight range at the start of the test. The test group consisted of six mice. The tumor was implanted in each of the test mice by the intraperitoneal injection of 0.1 ml of diluted ascitic fluid containing 10^5 cells drawn from a mouse with L1210 leukemia. The test compounds were suspended in hydroxypropylcellulose or saline with Tween® 80 surfactant or dissolved in saline and injected intraperitoneally, at various doses, once daily for nine consecutive days starting on day one relative to the day of tumor inoculation (day 0). The control mice received injections of saline or hydroxypropylcellulose vehicle only. The mice were weighed and survivors were recorded on a regular basis for 30 days. The median survival time and the ratio of the median survival time for the treated (T) and control (C) mice was calculated. […] Drug effectiveness was assessed on the basis of the survival time. Results were expressed as a percentage of the control survival time (Median Survival Time: T/C ×100%). The criterion for effectiveness was determined by: T/C×100≥125 percent.

[1] = Mus musculus, L1210, ip, 720 h, read-out: L1210 Leukemia % T/C (median survival time)
[2] = Mus musculus, L1210, ip, 720 h, 100 mg/kg i.p., read-out: L1210 Leukemia % T/C (median survival time)
[3] = Mus musculus, L1210, ip, 720 h, 25 mg/kg i.p., read-out: L1210 Leukemia % T/C (median survival time)
[4] = Mus musculus, L1210, ip, 720 h, 50 mg/kg i.p., read-out: L1210 Leukemia % T/C (median survival time)
[5] = Mus musculus, L1210, ip, 720 h, 75 mg/kg i.p., read-out: L1210 Leukemia % T/C (median survival time)
[6] = Mus musculus, L1210, ip, 720 h, 150 mg/kg i.p., read-out: L1210 Leukemia % T/C (median survival time)
[7] = Mus musculus, L1210, ip, 720 h, 50 mg/kg i.p., nonoptimal Q1DX9 instead of Q3DX9, read-out: L1210 Leukemia % T/C (median survival time)
[8] = Mus musculus, L1210, ip, 720 h, 75 mg/kg i.p., nonoptimal Q1DX9 instead of Q3DX9, read-out: L1210 Leukemia % T/C (median survival time)
[9] = Mus musculus, L1210, ip, 720 h, nonoptimal Q1DX9 instead of Q3DX9, read-out: L1210 Leukemia % T/C (median survival time)

Work on `Cc1c(-c2ccc(Sc3ccccc3)cc2)nc2ccc(Cl)cc2c1C(=O)O` [Example 21] yielded a response vs control in vivo at 200 mg/kg [1] of 160%.

For `Cc1c(-c2ccc(Cc3ccccc3)cc2)nc2ccc(Cl)cc2c1C(=O)O` [Example 22], the response vs control in vivo at 100 mg/kg [2] was 135%.

For `Cc1c(-c2ccc(-c3ccc(F)cc3)cc2)nc2ccc(Cl)cc2c1C(=O)O` [Example 23], the response vs control in vivo at 25 mg/kg [3] was 159%.

`Cc1c(-c2ccc(-c3ccc(Br)cc3)cc2)nc2ccc(Cl)cc2c1C(=O)O` [Example 27] gave a response vs control in vivo at 50 mg/kg [4] of 155%.

`COc1c(-c2ccc(-c3ccc(C(F)(F)F)cc3)cc2)nc2ccc(F)cc2c1C(=O)O` [Example 32] gave a response vs control in vivo at 175 mg/kg [1] of 153%.

`Cc1c(-c2ccc([S+]([O-])c3ccccc3)cc2)nc2ccc(F)cc2c1C(=O)O` (centres unmarked) [Example 34] gave a response vs control in vivo at 400 mg/kg (Mus musculus, L1210, ip, 720 h, 400 mg/kg i.p., read-out: L1210 Leukemia % T/C (median survival time)) of 170%.

`Cc1c(-c2ccc(Oc3ccc(F)cc3)cc2)nc2ccc(F)cc2c1C(=O)O` [Example 35] was tested, and the “L1210 Leukemia % T/C (median survival time)” value (from here on “L1210 Leukemia % T/C”) (150 mg/kg i.p.) was 204%.

Compound `Cc1c(-c2ccc(-c3ccc(Cl)c(Cl)c3)cc2)nc2ccc(F)cc2c1C(=O)O` [Example 36] has a response vs control in vivo at 75 mg/kg [5] of 185%.

`COc1c(-c2ccc(-c3ccccc3)cc2)nc2ccc(F)cc2c1C(=O)O` [Example 37] was tested, and the “L1210 Leukemia % T/C” value (50 mg/kg i.p.) was 155%.

With `Cc1ccc2c(C(=O)O)c(C)c(-c3ccc(-c4ccccc4)cc3)nc2c1` [Example 55] the response vs control in vivo at 150 mg/kg [6] was 156%.

`Cc1c(-c2ccc(-c3ccccc3)cc2)nc2cc(Cl)c(F)cc2c1C(=O)O` [Example 61] gave a response vs control in vivo at 75 mg/kg [5] of 160%.

`Cc1cc(-c2ccccc2)ccc1-c1nc2ccc(F)cc2c(C(=O)O)c1C` [Example 68] gave a response vs control in vivo at 100 mg/kg [2] of 162%.

`Cc1c(-c2ccc(-c3ccccc3)cc2)nc2ccc(I)cc2c1C(=O)O` [Example 71] showed a response vs control in vivo at 25 mg/kg [3] of 163%.

`Cc1c(-c2ccc(-c3ccc(F)cc3F)cc2)nc2ccc(F)cc2c1C(=O)O` [Example 74] was tested, and the response vs control in vivo at 50 mg/kg [4] was 104%.

Compound `O=C(O)c1cc(-c2ccc(Oc3ccc(F)cc3)cc2)nc2ccc(F)cc12` [Example 75] has a response vs control in vivo at 150 mg/kg [6] of 145%.

`CSc1ccc2nc(-c3ccc(-c4ccccc4)cc3)c(C)c(C(=O)O)c2c1` [Example 76, 2-(4-Biphenyl)-3-methyl-6-methylthio-4-quinoline carboxylic acid] was tested, and the response vs control in vivo at 200 mg/kg [1] was 179%.

For `Cc1ccc(-c2ccc(-c3nc4ccc(F)c(Cl)c4c(C(=O)O)c3C)cc2)cc1` [Example 85], the “L1210 Leukemia % T/C” value (100 mg/kg i.p.) was 184%.

Compound `Cc1c(-c2ccc(Oc3ccc([N+](=O)[O-])cc3)cc2)nc2ccc(F)cc2c1C(=O)O` [Example 86, 6-Fluoro-3-methyl-2-(4-nitrophenoxyphenyl)-4-quinolinecarboxylic acid] has a response vs control in vivo at 175 mg/kg [1] of 153%.

In the case of `CCC(C)c1ccc(-c2nc3ccc(F)cc3c(C(=O)O)c2C)cc1` (centres unmarked) [Example 99], the response vs control in vivo at 50 mg/kg [7] is reported as 101%.

With `CCc1c(-c2ccc(C3CCCCC3)cc2)nc2ccc(F)cc2c1C(=O)O` [Example 100] the response vs control in vivo at 50 mg/kg [7] was 103%.

`Cc1c(-c2ccc(Oc3ccccc3)cc2)nc2ccc(Cl)cc2c1C(=O)O` [Example 110] gave a response vs control in vivo at 25 mg/kg [3] of 135%.

For `Cc1c(-c2ccc(-c3ccc(F)cc3)cc2)nc2ccc(Cl)cc2c1C(=O)O` [Example 113], the “L1210 Leukemia % T/C” value (25 mg/kg i.p.) was 166%.

In the case of `Cc1c(-c2ccc(SCc3ccccc3)cc2)nc2ccc(F)cc2c1C(=O)O` [Example 116], the response vs control in vivo at 75 mg/kg [8] is reported as 102%.

`Cc1c(-c2ccc(-c3ccc(Br)cc3)cc2)nc2ccc(Cl)cc2c1C(=O)O` [Example 117] gave a response vs control in vivo at 25 mg/kg [3] of 163%.

`Cc1ccc(-c2ccc(-c3nc4ccc(F)cc4c(C(=O)O)c3C)cc2)cc1` [Example 120] gave a response vs control in vivo at 100 mg/kg [2] of 132%.

With `O=C(O)c1cc(-c2ccc(-c3ccccc3)cc2)nc2ccc(F)cc12` [Example 123] the response vs control in vivo at 21.9 mg/kg (Mus musculus, L1210, ip, 720 h, 21.9 mg/kg i.p., read-out: L1210 Leukemia % T/C (median survival time)) was 145%.

In the case of `Cc1c(-c2ccc([S+]([O-])c3ccccc3)cc2)nc2ccc(F)cc2c1C(=O)O` (centres unmarked) [Example 124], the response vs control in vivo at 360 mg/kg (Mus musculus, L1210, ip, 720 h, 360 mg/kg i.p., read-out: L1210 Leukemia % T/C (median survival time)) is reported as 184%.

In the case of `Cc1c(-c2ccc(Oc3ccc(F)cc3)cc2)nc2ccc(F)cc2c1C(=O)O` [Example 125], the “L1210 Leukemia % T/C” value (150 mg/kg i.p.) is reported as 150%.

In the case of `Cc1c(-c2ccc(-c3ccc(Cl)c(Cl)c3)cc2)nc2ccc(F)cc2c1C(=O)O` [Example 126], the response vs control in vivo at 37.5 mg/kg [1] is reported as 150%.

With `COc1c(-c2ccc(-c3ccccc3)cc2)nc2ccc(F)cc2c1C(=O)O` [Example 127] the “L1210 Leukemia % T/C” value (50 mg/kg i.p.) was 193%.

Compound `Cc1ccc(-c2ccc(-c3nc4ccc(F)cc4c(C(=O)O)c3C)cc2)cc1Cl` [Example 128] has a response vs control in vivo at 25 mg/kg [3] of 135%.

Compound `Cc1ccc(-c2ccc(-c3nc4ccc(F)cc4c(C(=O)O)c3C)cc2)cc1C` [Example 129] has a response vs control in vivo at 100 mg/kg [2] of 154%.

In the case of `Cc1c(-c2ccc(C3CCCCC3)cc2)nc2ccc(Br)cc2c1C(=O)O` [Example 135], the “L1210 Leukemia % T/C” value (400 mg/kg i.p.) is reported as 160%.

`Cc1c(-c2ccc(-c3ccccc3)cc2)nc2ccc(Br)cc2c1C(=O)O` [Example 142] showed a response vs control in vivo at 37.5 mg/kg [1] of 169%.

Compound `Cc1c(-c2ccc(Oc3ccccc3)cc2)nc2ccc(Br)cc2c1C(=O)O` [Example 143] has a response vs control in vivo at 37.5 mg/kg [1] of 132%.

`Cc1c(-c2ccc(-c3ccc(F)cc3)cc2)nc2cc(Cl)c(F)cc2c1C(=O)O` [Example 144] showed a response vs control in vivo at 37.5 mg/kg [9] of 123%.

`Cc1c(-c2ccc(-c3ccccc3)cc2)nc2ccc(C(F)(F)F)cc2c1C(=O)O` [Example 146] gave a response vs control in vivo at 37.5 mg/kg [1] of 164%.

Compound `Cc1c(-c2ccc(Oc3ccccc3)cc2)nc2ccc(C(F)(F)F)cc2c1C(=O)O` [Example 147] has a response vs control in vivo at 18 mg/kg (Mus musculus, L1210, ip, 720 h, 18 mg/kg i.p., read-out: L1210 Leukemia % T/C (median survival time)) of 132%.

In the case of `Cc1cc2c(C(=O)O)c(C)c(-c3ccc(Oc4ccccc4)cc3)nc2cc1Cl` [Example 149], the response vs control in vivo at 75 mg/kg [8] is reported as 107%.

For `Cc1c(-c2ccc(-c3ccccc3)cc2)nc2c(Br)cc(Br)cc2c1C(=O)O` [Example 150], the response vs control in vivo at 37.5 mg/kg [9] was 105%.

With `Cc1c(-c2ccc(-c3ccccc3)cc2)nc2cc(Cl)c(F)cc2c1C(=O)O` [Example 151] the “L1210 Leukemia % T/C” value (75 mg/kg i.p.) was 144%.

`Cc1cc(-c2ccccc2)ccc1-c1nc2ccc(F)cc2c(C(=O)O)c1C` [Example 158] was tested, and the “L1210 Leukemia % T/C” value (100 mg/kg i.p.) was 148%.

With `Cc1c(-c2ccc(-c3ccccc3F)cc2)nc2ccc(Cl)cc2c1C(=O)O` [Example 160] the response vs control in vivo at 25 mg/kg [3] was 174%.

`Cc1c(-c2ccc(-c3ccccc3)cc2)nc2cccc(Cl)c2c1C(=O)O` [Example 163] gave a response vs control in vivo at 43.8 mg/kg (Mus musculus, L1210, ip, 720 h, 43.8 mg/kg i.p., read-out: L1210 Leukemia % T/C (median survival time)) of 180%.

Work on `Cc1c(-c2ccc(-c3ccccc3)cc2)nc2ccc(F)c(Cl)c2c1C(=O)O` [Example 164, Sodium 2-(4-Biphenylyl)-5-chloro-6-fluoro-3-methylquinoline-4-carboxylate] yielded a response vs control in vivo at 22.5 mg/kg (Mus musculus, L1210, ip, 720 h, read-out: L1210 Leukemia % T/C (median survival time), 22.5 mg/kg i.p.) of 234%.

`Cc1c(-c2ccc(-c3ccccc3)cc2)nc2cc(Cl)cc(Cl)c2c1C(=O)O` [Example 165] showed a response vs control in vivo at 50 mg/kg [4] of 128%.

For `Cc1ccc2nc(-c3ccc(-c4ccccc4)cc3)c(C)c(C(=O)O)c2c1Cl` [Example 166], the response vs control in vivo at 50 mg/kg [4] was 156%.

`Cc1c(-c2ccc(-c3ccccc3F)cc2)nc2ccc(F)c(Cl)c2c1C(=O)O` [Example 167] gave a response vs control in vivo at 12.5 mg/kg [1] of 197%.

Compound `Cc1c(-c2ccc(Oc3ccccc3)cc2)nc2ccc(Cl)cc2c1C(=O)O` [Example 172] has a response vs control in vivo at 100 mg/kg [2] of 151%.

`Cc1c(-c2ccc(-c3ccc(Br)cc3)cc2)nc2ccc(Cl)cc2c1C(=O)O` [Example 175] showed a response vs control in vivo at 12.5 mg/kg [1] of 156%.
